Measurements as given in patent publication US12728119B2, “Pharmaceutical composition for preventing or treating cancer comprising 3-ketoacyl CoA thiolase inhibitor and carnitine acylcarnitine carrier inhibitor” (NATIONAL CANCER CENTER, priority 2020, dated 2026).
“And” between values parts separate entries of the source, which are not always exact repeats. Equal entries are not always repeated.

Key:
Format in all cases: cell-based
A375 melanoma cell line = experiment: SRB analysis 3; settings: 48 hours
Procedure: (§1) Through SRB analysis (n=3), the effect of triple combination treatment of a CAC inhibitor (KN510: omeprazole), ACAA inhibitor (KN713: trimetazidine) and other anticancer drug on cell growth in the cancer cells was analyzed. (see Table 11).
(§2) The SRB assay was performed as follows: each cell line (100 μl) was seeded into 96-well microtiter plates at densities ranging from 5,000 to 40,000 cells/well depending on the doubling time of each cell line. After 24 hours, drug (100 μl per well) was added to each well and the culture was incubated at 37° C. for 48 hours. Cells were then fixed in 50% TCA (50 μl per well) and plates were incubated at 4° C. for a minimum of 1 hour or a maximum of 3 hours. After that, the liquid was removed from the plate, then rinsed 5 times with water and dried for approximately 12-24 hours at room temperature (RT). After the fixed cells were stained with 0.4% SRB (100 μl per well) for 10 minutes at room temperature, the plates were washed 3 times with 1% glacial acetic acid and dried at room temperature for about 12-24 hours. SRB staining was dissolved in 10 mM Trizma base and absorbance was read at 515 nm. The effect of the drug was expressed as GI50 (50% growth inhibition), TGI (total growth inhibition) or LC50 (lethal concentration). GI50 is the maximum concentration at the moment of 50% inhibition of cell proliferation and IC50 is the concentration of the drug that inhibits the enzyme activity in vitro by 50% in this study.

[1] = system: A549 non-small cell lung cancer (NSCLC) cell line; experiment: SRB analysis 3; settings: 48 hours
Procedure: as §1, §2

[2] = system: ACHN renal cancer cell line; experiment: SRB analysis 3; settings: 48 hours
Procedure: as §1, §2

[3] = system: AGS gastric cancer cell line; experiment: SRB analysis 3; settings: 48 hours
Procedure: as §1, §2

[4] = system: AsPC-1 pancreatic cancer (PDAC) cell line; experiment: SRB analysis 3; settings: 48 hours
Procedure: as §1, §2

[5] = system: COLO-205 colon cancer cell line; experiment: SRB analysis 3; settings: 48 hours
Procedure: as §1, §2

[6] = system: Caki-1 renal cancer cell line; experiment: SRB analysis 3; settings: 48 hours
Procedure: as §1, §2

[7] = system: DU145 prostate cancer cell line; experiment: SRB analysis 3; settings: 48 hours
Procedure: as §1, §2

[8] = system: H1975 non-small cell lung cancer (NSCLC) cell line; experiment: SRB analysis 3; settings: 48 hours
Procedure: as §1, §2

[9] = system: HCT-116 colon cancer cell line; experiment: SRB analysis 3; settings: 48 hours
Procedure: as §1, §2

[10] = system: Huh-7 liver cancer cell line; experiment: SRB analysis 3; settings: 48 hours
Procedure: as §1, §2

[11] = system: MCF7 breast cancer cell line; experiment: SRB analysis 3; settings: 48 hours
Procedure: as §1, §2

[12] = system: MDA-MB-231 breast cancer cell line; experiment: SRB analysis 3; settings: 48 hours
Procedure: as §1, §2

[13] = system: MIA PaCa-2 pancreatic cancer (PDAC) cell line; experiment: SRB analysis 3; settings: 48 hours
Procedure: as §1, §2

[14] = system: MKN45 gastric cancer cell line; experiment: SRB analysis 3; settings: 48 hours
Procedure: as §1, §2

[15] = system: OVCAR-8 ovarian cancer cell line; experiment: SRB analysis 3; settings: 48 hours
Procedure: as §1, §2

[16] = system: PC-3 prostate cancer cell line; experiment: SRB analysis 3; settings: 48 hours
Procedure: as §1, §2

[17] = system: SK-OV-3 ovarian cancer cell line; experiment: SRB analysis 3; settings: 48 hours
Procedure: as §1, §2

[18] = system: SK-hep-1 liver cancer cell line; experiment: SRB analysis 3; settings: 48 hours
Procedure: as §1, §2

[19] = system: UACC62 melanoma cell line; experiment: SRB analysis 3; settings: 48 hours
Procedure: as §1, §2

cancer cells = experiment: SRB analysis 3, triple combination, summary over cancer panels
Procedure: as §1, §2

[20] = system: T87G glioblastoma (GBM) cell line; experiment: SRB analysis 3; settings: Cisplatin 1 μM, 48 hours
Procedure: as §2, with “Through SRB analysis (n=3), the effect of triple combination treatment of a CAC inhibitor ([…] inhibitor (KN713: trimetazidine) and other anticancer drug on cell growth in the cancer cells was analyzed. (see Table 11). The” for “The”, “nm.” for “nm. The effect of the drug was expressed as GI50 (50% growth inhibition), TGI (total growth inhibition) or LC50 (lethal concentration). GI50 is the maximum concentration at the moment of 50% inhibition of cell proliferation and IC50 is the concentration of the drug that inhibits the enzyme activity in vitro by 50% in this study.”

[21] = system: U87MG glioblastoma (GBM) cell line; experiment: SRB analysis 3; settings: Cisplatin 1 μM, 48 hours
Procedure: as §2, with “Through SRB analysis (n=3), the effect of triple combination treatment of a CAC inhibitor ([…] inhibitor (KN713: trimetazidine) and other anticancer drug on cell growth in the cancer cells was analyzed. (see Table 11). The” for “The”, “nm.” for “nm. The effect of the drug was expressed as GI50 (50% growth inhibition), TGI (total growth inhibition) or LC50 (lethal concentration). GI50 is the maximum concentration at the moment of 50% inhibition of cell proliferation and IC50 is the concentration of the drug that inhibits the enzyme activity in vitro by 50% in this study.”

[22] = system: AsPC-1 pancreatic cancer cells; experiment: SRB analysis 2; settings: KN715 200 μM, 48 hours
Procedure: (§3) The SRB assay was performed as follows: each cell line (100 μl) was seeded into 96-well microtiter plates at densities ranging from 5,000 to 20,000 cells/well depending on the doubling time of each cell line. After cell seeding, microtiter plates were incubated for 24 h before addition of experimental drug. Drugs were prepared at the indicated concentrations and 100 μl was added to each well; The plates were then incubated in a CO2 incubator. Then, cold TCA was added to terminate the assay. Cells were fixed in situ by gentle addition of 50 μl of cold 50% (w/v) TCA (final concentration: 10% TCA) and incubated at 4° C. for 60 min. The supernatant was discarded and the plate was washed 5 times with tap water and then air dried. A solution (100 μl) of 0.4% (w/v) SRB (Sulforhodamine B) in 1% acetic acid was added to each well, and the plate was left at room temperature for 10 minutes. After staining, the plates were air dried after washing 5 times with 1% acetic acid to remove unbound dye. The bound dye was then solubilized with 10 mM trizma base and the absorbance was recorded at 515 nm using an automated plate reader.

[23] = system: BxPC-3 pancreatic cancer cells; experiment: SRB analysis 2; settings: KN715 200 μM, 48 hours
Procedure: as §3

[24] = system: MIA PaCa2 pancreatic cancer cells; experiment: SRB analysis 2; settings: MIA PaCa-2; KN715 200 μM; 48 hours
Procedure: as §3

[25] = system: SNU-324 pancreatic cancer cells; experiment: SRB analysis 2; settings: SNU324; KN715 200 μM; 48 hours
Procedure: as §3

[26] = system: SU.86.86 pancreatic cancer cells; experiment: SRB analysis 2; settings: KN715 200 μM, 48 hours
Procedure: as §3

[27] = Breast Cancer, BT-549, MDA MB 231
[28] = Ovarian Cancer, SK-OV-3, OVCAR-3
[29] = Renal cell carcinoma, ACHN, CAKI-1

O=c1[nH]cc(F)c(=O)[nH]1 [5-FU]
cell growth (Control = 100) (A375 melanoma cell line; 5-FU 5 μM): 95.91
cell growth (Control = 100) ([1]; 5-FU 5 μM): 28.5
cell growth (Control = 100) ([2]; 5-FU 5 μM): 26.38
cell growth (Control = 100) ([3]; 5-FU 5 μM): 39.84
cell growth (Control = 100) ([4]; 5-FU 10 μM): 64.54
cell growth (Control = 100) ([5]; 5-FU 5 μM): −4.957
cell growth (Control = 100) ([6]; 5-FU 5 μM): 59.41
cell growth (Control = 100) ([7]; 5-FU 5 μM): 59.63
cell growth (Control = 100) ([8]; 5-FU 5 μM): 58.333
cell growth (Control = 100) ([9]; 5-FU 5 μM): 14.62
cell growth (Control = 100) ([10]; 5-FU 5 μM): 34.9345
cell growth (Control = 100) ([11]; 5-FU 5 μM): 11.29
cell growth (Control = 100) ([12]; 5-FU 5 μM): 73.95
cell growth (Control = 100) ([13]; 5-FU 10 μM): 36.7557
cell growth (Control = 100) ([14]; MKN45, 5-FU 5 μM): 51.03
cell growth (Control = 100) ([15]; 5-FU 5 μM): 77.83
cell growth (Control = 100) ([16]; 5-FU 5 μM): 51.6552
cell growth (Control = 100) ([17]; 5-FU 5 μM): 80.76
cell growth (Control = 100) ([18]; 5-FU 5 μM): 149.7317
cell growth (Control = 100) ([19]; 5-FU 5 μM): 59.14
Positive/Negative (triple combination of KN510, KN713 and the listed anticancer drug) (cancer cells; [27]): negative
Positive/Negative (triple combination of KN510, KN713 and the listed anticancer drug) (cancer cells; Colon Cancer, HT-29, COLO-205): Positive
Positive/Negative (triple combination of KN510, KN713 and the listed anticancer drug) (cancer cells; GBM, U87MG, T87G): Positive
Positive/Negative (triple combination of KN510, KN713 and the listed anticancer drug) (cancer cells; Liver Cancer, SNU-449, Huh-7): Positive
Positive/Negative (triple combination of KN510, KN713 and the listed anticancer drug) (cancer cells; NSCLC, A549, H522): Positive
Positive/Negative (triple combination of KN510, KN713 and the listed anticancer drug) (cancer cells; [28]): negative
Positive/Negative (triple combination of KN510, KN713 and the listed anticancer drug) (cancer cells; PDAC, MIA PaCa-2, PANC-1): Positive
Positive/Negative (triple combination of KN510, KN713 and the listed anticancer drug) (cancer cells; Prostate Cancer, PC-3, DU-145): Positive
Positive/Negative (triple combination of KN510, KN713 and the listed anticancer drug) (cancer cells; [29]): Positive
Positive/Negative (triple combination of KN510, KN713 and the listed anticancer drug) (cancer cells; Stomach Cancer, MKN-28, AGS): Positive
Positive/Negative (triple combination of KN510, KN713 and the listed anticancer drug) (cancer cells; melanoma, UACC62, A375): negative

N.N.[Cl][Pt][Cl] [Cisplatin]
cell growth (Control = 100) (A375 melanoma cell line; Cisplatin 1 μM): 85.06
cell growth (Control = 100) ([1]; Cisplatin 1 μM): 75.07
cell growth (Control = 100) ([2]; Cisplatin 1 μM): 118.1147
cell growth (Control = 100) ([3]; Cisplatin 1 μM): 74.02
cell growth (Control = 100) ([4]; Cisplatin 1 μM): 94.84
cell growth (Control = 100) ([5]; Cisplatin 1 μM): 83.44
cell growth (Control = 100) ([6]; Cisplatin 1 μM): 113.4691
cell growth (Control = 100) ([7]; Cisplatin 1 μM): 60.85
cell growth (Control = 100) ([8]; Cisplatin 1 μM): 97.49
cell growth (Control = 100) ([9]; Cisplatin 1 μM): 100.5484
cell growth (Control = 100) ([10]; Cisplatin 1 μM): 66.69
cell growth (Control = 100) ([11]; Cisplatin 1 μM): 70.82
cell growth (Control = 100) ([12]; Cisplatin 1 μM): 93.91
cell growth (Control = 100) ([13]; Cisplatin 1 μM): 95.91
cell growth (Control = 100) ([14]; MKN-45, Cisplatin 1 μM): 96.28
cell growth (Control = 100) ([15]; Cisplatin 1 μM): 84.76
cell growth (Control = 100) ([16]; Cisplatin 1 μM): 67.15
cell growth (Control = 100) ([17]; Cisplatin 1 μM): 75.0979
cell growth (Control = 100) ([18]; Cisplatin 1 μM): 136.3148
cell growth (Control = 100) ([19]; Cisplatin 1 μM): 91.68
cell growth (Control = 100) [20]: 120.49
cell growth (Control = 100) [21]: 87.30
Positive/Negative (triple combination of KN510, KN713 and the listed anticancer drug) (cancer cells; [27]): negative
Positive/Negative (triple combination of KN510, KN713 and the listed anticancer drug) (cancer cells; Colon Cancer, HT-29, COLO-205): negative
Positive/Negative (triple combination of KN510, KN713 and the listed anticancer drug) (cancer cells; GBM, U87MG, T87G): negative
Positive/Negative (triple combination of KN510, KN713 and the listed anticancer drug) (cancer cells; Liver Cancer, SNU-449, Huh-7): negative
Positive/Negative (triple combination of KN510, KN713 and the listed anticancer drug) (cancer cells; NSCLC, A549, H522): negative
Positive/Negative (triple combination of KN510, KN713 and the listed anticancer drug) (cancer cells; [28]): negative
Positive/Negative (triple combination of KN510, KN713 and the listed anticancer drug) (cancer cells; PDAC, MIA PaCa-2, PANC-1): negative
Positive/Negative (triple combination of KN510, KN713 and the listed anticancer drug) (cancer cells; Prostate Cancer, PC-3, DU-145): negative
Positive/Negative (triple combination of KN510, KN713 and the listed anticancer drug) (cancer cells; [29]): negative
Positive/Negative (triple combination of KN510, KN713 and the listed anticancer drug) (cancer cells; Stomach Cancer, MKN-28, AGS): negative
Positive/Negative (triple combination of KN510, KN713 and the listed anticancer drug) (cancer cells; melanoma, UACC62, A375): negative

COc1ccccc1OCC(O)CN1CCN(CC(=O)Nc2c(C)cccc2C)CC1 (centres unmarked) [KN715, ranolazine]
degree of cell growth based on the control (100%) [22]: 86.53% and 57.91% and 63.15%
degree of cell growth based on the control (100%) [23]: 46.24% and 45.76% and 59.04%
degree of cell growth based on the control (100%) [24]: 87.91% and 65.15% and 73.29%
degree of cell growth based on the control (100%) [25]: 23.58% and 23.63% and 27.45%
degree of cell growth based on the control (100%) [26]: 90.37% and 63.92% and 73.38%

CCCS(=O)(=O)Nc1ccc(F)c(C(=O)c2c[nH]c3ncc(-c4ccc(Cl)cc4)cc23)c1F [Vermutafenib]
cell growth (Control = 100) (A375 melanoma cell line; Vermutafenib 0.5 μM): 7.77
cell growth (Control = 100) ([19]; Vermutafenib 0.5 μM): 2.10
